According to patent US4049795A, “Treatment of hemorrhagic shock” (priority 1974, dated 1977):
Where two headings read alike, the source gives them in different places.

What was measured:
[1] = pH of a solution in distilled water; type: physicochemical
[2] = tested on: glucidic metabolism; assay: Glucidic metabolism under intravenous perfusion in rabbits (lactacidemia, pyruvicemia, glycemia); type: in vivo, rabbit
Description: These tests were carried out on rabbits weighing an average of 2.500 kg.
A trachetomy was carried out under local anaesthesia with procaine. […] A saphenous vein and the two femoral arteries were catheterized under local anaesthesia in order to register the blood pressure by a manometer and to take blood samples; a jugular vein was catheterized to the base of the skull to sample cerebral venous blood.
The results obtained were compared with those obtained following a perfusion carried out in the same way with sodium d,l-lactate at a dose of 40 mg/kg/min.
The glycemia was measured by the enzymatic method in the arterial and cerebral venus blood. The samples were taken before the perfusion, at the end of the perfusion, and at 30 minutes and 60 minutes after perfusion.

[3] = tested on: cerebral anoxemia by clamping; assay: Cerebral anoxemia by clamping in rabbits; type: in vivo, rabbit; settings: 1 g/kg intravenously
Description: The tests were done on rabbits weighing an average of 2.5 kg. The fastening of the cranial electrodes was done under local anaesthesia with procaine, as was the placing of the catheters in a femoral artery to record the blood pressure. The tracheotomies and tracheal intubations were also done under local anaesthesia using procaine. The temperature was maintained at around 38° C. Three types of anoxemia were investigated; 1. Elective cerebral anoxemia by stopping cerebral circulation (anoxemia by clamping): Artificial ventilation was set up by an apparatus allowing constant volume and speed of respiration. An upper sternatomy of the manubrium was carried out; the left sub-[…] artery, the left carotid artery and the right trucus brachiocephalicus were isolated. The clamps were then put into place according to the technique described by […] and LABORIT (Conference of d Agressologie Cycle, Vol. 1, p. 15 ff of 1959). The artificially ventilated animal preserved good peripheral cardiovascular dynamics during the ischemia and supported 120 seconds of clamping without severe hypotension. 3. Nitrogen anoxemia: The animal was curarized and artifically ventilated as indicated above. Anoxemia was obtained by connecting a nitrogen gasbag to the air intake of the BEAUDOUIN apparatus; general non-hypercapnic anoxemia occurred. Air was […] seconds. […] A latency of 30 minutes was observed before anoxemia was caused.

[4] = tested on: Hypercapnic anoxemia; assay: Hypercapnic anoxemia in rabbits; type: in vivo, rabbit
Description: The tests were done on rabbits weighing an average of 2.5 kg. The fastening of the cranial electrodes was done under local anaesthesia with procaine, as was the placing of the catheters in a femoral artery to record the blood pressure. The tracheotomies and tracheal intubations were also done under local anaesthesia using procaine. The temperature was maintained at around 38° C. Three types of anoxemia were investigated; 2. Hypercapnic anoxemia: The above-mentioned artificial ventilation of the animal after curarization was stopped. Stopping of the cerebral electrogenesis was obtained after an average of 120 seconds. 3. Nitrogen anoxemia: The animal was curarized and artifically ventilated as indicated above. Anoxemia was obtained by connecting a nitrogen gasbag to the air intake of the BEAUDOUIN apparatus; general non-hypercapnic anoxemia occurred. Air was […] seconds. […] A latency of 30 minutes was observed before anoxemia was caused.

[5] = tested on: blood pressure; settings: for blood pressure after first injection: Clinical Example 12, 2 g
Source text: A person who had suffered from high blood pressure for a long time underwent an urgent operation for the removal of an intra-cerebral hematoma. […] A person who had suffered from high blood pressure and cardiac arrhythmias, was undergoing an operation for the removal of a bilateral sub-dural hematoma. […] A person of generally good health but who had undergone surgery in the previous month for the excision of a cancer of the cecum, was undergoing an operation for a cerebral metastasis. […] A perfusion of two units of blood (800 ml ) was effected to compensate for the moderate blood losses.

[6] = tested on: cerebral lactate edema; settings: edema induced by mechanical, biological or pharmacological means; cited from earlier work

O=C(CO)CO [dihydroxyacetone]
pH of a solution in distilled water [1]: 4
lactacidemia compared with perfusion of sodium lactate ([2]; 66 mg/kg over 15 minutes): values lower than those obtained after a perfusion of sodium lactate
lactacidemia at 30 and 60 minutes after the end of perfusion ([2]; 30 and 60 minutes after perfusion): continued to increase at 30 and 60 minutes after the end of perfusion
glycemia ([2]; after a perfusion): increased considerably
lactacidemia when perfusion of sodium lactate was followed by perfusion of dihydroxyacetone ([2]; after sodium lactate): a progressive fall in the lactacidemia
pyruvicemia ([2]; rabbit, intravenous perfusion): increased in parallel with lactacidemia
recuperation latency, anoxemia by clamping [3]: no improvement at all
recuperation time, anoxemia by clamping [3]: no improvement
survival time, anoxemia by clamping ([3]; prior perfusion): minor
recuperation latency, hypercapnic anoxemia ([4]; 1 g/kg intravenously): an improvement which was difficult to measure
survival time, hypercapnic anoxemia ([4]; 1 g/kg intravenously, prior perfusion): pronounced
recuperation time, hypercapnic anoxemia ([4]; 1 g/kg intravenously, result in words): a clear improvement
recuperation time, hypercapnic anoxemia ([4]; for 2 minutes of anoxemia): ≤ 30 s
blood pressure after first injection ([5]; after two hours): 95 mm Hg
blood pressure after first injection ([5]; one hour, from 90): 130 mm Hg
blood pressure after second injection ([5]; Clinical Example 12, second 2 g in 10% glucose solution, remained): 130 mm Hg
blood pressure after injection ([5]; Clinical Example 13, 2 g over 15 minutes, from 60): 100 mm Hg
blood pressure after injection ([5]; Clinical Example 14, 2 g, 45 minutes later): 170 mm Hg
blood pressure after injection ([5]; Clinical Example 14, 2 g, within 20 minutes, from 70): 130 mm Hg
blood pressure after perfusion ([5]; Clinical Example 15, 2 g, within 15 minutes, from 60): 110 mm Hg
blood pressure after injection, stabilized ([5]; Clinical Example 16, 3 g): 100 mm Hg
blood pressure after injection, initial rise ([5]; Clinical Example 16, 3 g, from 80): 120 mm Hg
post-operative complications ([5]; human, in vivo): no post-operative complications
undesirable side effects ([5]; human, in vivo): without undesirable side effects
protection against cerebral lactate edema [6]: will protect a rat against cerebral lactate edema
